{"source": "patent US20080039319A1", "about": "“Fungicidal Mixtures and Novel Triazolopyrimidines” (Basf Aktiengesellschaft, priority 2004, published 2008)", "key": {"[1]": {"tested_on": "Phytophthora infestans", "conditions": "in vivo"}, "[2]": {"tested_on": "Alternaria solani", "assay": "Comparative Test 1: activity against early blight of tomato caused by Alternaria solani", "format": "in vivo", "conditions": "individual active compound"}, "[3]": {"tested_on": "Plasmopara viticola", "assay": "Comparative Test 3: activity against Peronospora of grapevines caused by Plasmopara viticola", "format": "in vivo", "conditions": "individual active compound"}, "[4]": {"tested_on": "Pyrenophora [syn. Drechslera] teres", "assay": "Use Example 4: net blotch of barley caused by Pyrenophora teres, second test", "format": "in vivo", "conditions": "individual active compound"}, "[5]": {"tested_on": "Sphaerotheca fuliginea", "assay": "Use Example 8: activity against mildew on cucumber leaves caused by Sphaerotheca fuliginea, protective application", "conditions": "in vivo"}, "[6]": {"tested_on": "Pyrenophora [syn. Drechslera] teres", "assay": "Use Example 4: activity against net blotch of barley caused by Pyrenophora teres, 1-day protective application (first test)", "format": "in vivo", "conditions": "individual active compound"}, "[7]": {"tested_on": "Botrytis cinerea", "assay": "Use Example 7: activity against gray mold on bell pepper leaves caused by Botrytis cinerea, protective application", "format": "in vivo", "conditions": "individual active compound"}, "[8]": {"tested_on": "Alternaria solani", "assay": "Use Example 6: activity against early blight of tomato caused by Alternaria solani (second test)", "format": "in vivo", "conditions": "individual active compound"}, "[9]": {"tested_on": "Erysiphe [syn. Blumeria] graminis forma specialis. Tritici", "assay": "Use Example 5: activity against mildew of wheat caused by Erysiphe [syn. Blumeria] graminis forma specialis tritici, 3-day protective application", "format": "in vivo, Erysiphe graminis f. sp. tritici", "conditions": "individual active compound"}}, "data": [{"compound": "CC1CCN(c2c(-c3c(F)cccc3Cl)c(Cl)nc3ncnn23)CC1", "note": "[(π)]", "values": [{"measurement": "Efficacy in % of the untreated control", "setting": "[1]", "value": 0, "unit": "%"}, {"measurement": "Efficacy in % of the untreated control", "setting": "[2]; 2.5 ppm in the spray liquor", "value": 0, "unit": "%"}, {"measurement": "Efficacy in % of the untreated control", "setting": "[2]; 5 ppm in the spray liquor", "value": 21, "unit": "%"}, {"measurement": "Efficacy in % of the untreated control", "setting": "[2]; 10 ppm in the spray liquor", "value": 44, "unit": "%"}, {"measurement": "Efficacy in % of the untreated control", "setting": "[3]; 5 ppm in the spray liquor", "value": 5, "unit": "%"}, {"measurement": "Efficacy in % of the untreated control", "setting": "[3]; 10 ppm in the spray liquor", "value": 19, "unit": "%"}]}, {"compound": "N#Cc1c(Cl)c(Cl)c(Cl)c(C#N)c1Cl", "note": "[chlorothalonil (Q-1), 2,4,5,6-tetrachloroisophthalonitrile]", "values": [{"measurement": "Efficacy in % of the untreated control", "setting": "[4]; 12.5 ppm in the spray liquor", "value": 0, "unit": "%"}, {"measurement": "Efficacy in % of the untreated control", "setting": "[4]; 50 ppm in the spray liquor", "value": 0, "unit": "%"}, {"measurement": "Efficacy in % of the untreated control", "setting": "[4]; 100 ppm in the spray liquor", "value": 0, "unit": "%"}]}, {"compound": "N#Cc1c[nH]cc1-c1cccc2c1OC(F)(F)O2", "note": "[fludioxonil (O-1), 4-(2,2-difluorobenzo[1,3]dioxol-4-yl)-1H-pyrrole-3-carbonitrile]", "values": [{"measurement": "Efficacy in % of the untreated control", "setting": "[5]", "value": 56, "unit": "%"}]}, {"compound": "CC1(C)CCC(Cc2ccc(Cl)cc2)C1(O)Cn1cncn1", "note": "(stereo not shown) [metconazole (A-3), 5-(4-chlorobenzyl)-2,2-dimethyl-1-[1,2,4]triazol-1-ylmethylcyclopentanol]", "values": [{"measurement": "Efficacy in % of the untreated control", "setting": "[6]; 1.25 ppm in the spray liquor", "value": 0, "unit": "%"}, {"measurement": "Efficacy in % of the untreated control", "setting": "[6]; 2.5 ppm in the spray liquor", "value": 0, "unit": "%"}, {"measurement": "Efficacy in % of the untreated control", "setting": "[6]; 5 ppm in the spray liquor", "value": 0, "unit": "%"}]}, {"compound": "CC(C)OC(=O)c1cc(C(=O)OC(C)C)cc([N+](=O)[O-])c1", "note": "[nitrophthal-isopropyl (N-1), diisopropyl 5-nitroisophthalate]", "values": [{"measurement": "Efficacy in % of the untreated control", "setting": "[7]; 12.5 ppm in the spray liquor", "value": 0, "unit": "%"}, {"measurement": "Efficacy in % of the untreated control", "setting": "[7]; 100 ppm in the spray liquor", "value": 33, "unit": "%"}]}, {"compound": "S1SSSSSSS1", "note": "[sulfur (M-1), sulfur]", "values": [{"measurement": "Efficacy in % of the untreated control", "setting": "[7]; 0.3125 ppm in the spray liquor", "value": 22, "unit": "%"}, {"measurement": "Efficacy in % of the untreated control", "setting": "[7]; 0.625 ppm in the spray liquor", "value": 56, "unit": "%"}]}, {"compound": "O=C(Nc1ccccc1-c1ccc(Cl)cc1)c1cccnc1Cl", "note": "[boscalid (L-2), 2-chloro-N-(4′-chlorobiphenyl-2-yl)nicotinamide]", "values": [{"measurement": "Efficacy in % of the untreated control", "setting": "[1]", "value": 0, "unit": "%"}]}, {"compound": "OC(Cn1cncn1)(c1ccc(F)cc1)c1ccccc1F", "note": "(stereo not shown) [flutriafol (A-2), 1-(4-fluorophenyl)-1-(2-fluorophenyl)-2-[1,2,4]triazol-1-ylethanol]", "values": [{"measurement": "Efficacy in % of the untreated control", "setting": "[6]; 1.25 ppm in the spray liquor", "value": 0, "unit": "%"}, {"measurement": "Efficacy in % of the untreated control", "setting": "[6]; 2.5 ppm in the spray liquor", "value": 0, "unit": "%"}, {"measurement": "Efficacy in % of the untreated control", "setting": "[6]; 5 ppm in the spray liquor", "value": 0, "unit": "%"}]}, {"compound": "Fc1ccc([C@]2(Cn3cncn3)O[C@H]2c2ccccc2Cl)cc1", "note": "(racemic) [epoxiconazole (A-1), (2RS,3SR)-1-[3-(2-chlorophenyl)-2,3-epoxy-2-(4-fluorophenyl)propyl]-1H-1,2,4-triazole]", "values": [{"measurement": "Efficacy in % of the untreated control", "setting": "[6]; 1.25 ppm in the spray liquor", "value": 0, "unit": "%"}, {"measurement": "Efficacy in % of the untreated control", "setting": "[6]; 2.5 ppm in the spray liquor", "value": 20, "unit": "%"}, {"measurement": "Efficacy in % of the untreated control", "setting": "[6]; 5 ppm in the spray liquor", "value": 77, "unit": "%"}]}, {"compound": "O=C1C2CC=CCC2C(=O)N1SC(Cl)(Cl)Cl", "note": "(stereo not shown) [captan (P-1), 2-trichloromethylsulfanyl-3a,4,7,7a-tetrahydroisoindole-1,3-dione]", "values": [{"measurement": "Efficacy in % of the untreated control", "setting": "[7]; 12.5 ppm in the spray liquor", "value": 11, "unit": "%"}, {"measurement": "Efficacy in % of the untreated control", "setting": "[7]; 100 ppm in the spray liquor", "value": 56, "unit": "%"}, {"measurement": "Efficacy in % of the untreated control", "setting": "[3]; 12.5 ppm in the spray liquor", "value": 0, "unit": "%"}, {"measurement": "Efficacy in % of the untreated control", "setting": "[3]; 50 ppm in the spray liquor", "value": 0, "unit": "%"}]}, {"compound": "COC(=O)NC(=S)Nc1ccccc1NC(=S)NC(=O)OC", "note": "[thiophanate-methyl (L-4), dimethyl 1,2-phenylenebis(iminocarbonothioyl)bis(carbamate)]", "values": [{"measurement": "Efficacy in % of the untreated control", "setting": "[4]; 6.3 ppm in the spray liquor", "value": 0, "unit": "%"}, {"measurement": "Efficacy in % of the untreated control", "setting": "[4]; 100 ppm in the spray liquor", "value": 0, "unit": "%"}, {"measurement": "Efficacy in % of the untreated control", "setting": "[8]; 100 ppm in the spray liquor", "value": 0, "unit": "%"}]}, {"compound": "COc1ccc(C(=CC(=O)N2CCOCC2)c2ccc(Cl)cc2)cc1OC", "note": "[dimethomorph (G-1), 3-(4-chlorophenyl)-3-(3,4-dimethoxyphenyl)-1-morpholin4-ylpropenone]", "values": [{"measurement": "Efficacy in % of the untreated control", "setting": "[2]; 3.125 ppm in the spray liquor", "value": 0, "unit": "%"}, {"measurement": "Efficacy in % of the untreated control", "setting": "[2]; 12.5 ppm in the spray liquor", "value": 0, "unit": "%"}, {"measurement": "Efficacy in % of the untreated control", "setting": "[2]; 25 ppm in the spray liquor", "value": 0, "unit": "%"}, {"measurement": "Efficacy in % of the untreated control", "setting": "[2]; 50 ppm in the spray liquor", "value": 0, "unit": "%"}]}, {"compound": "COC(=O)N(OC)c1ccccc1COc1ccn(-c2ccc(Cl)cc2)n1", "note": "[pyraclostrobin (B-1), methyl N-{2-[1-(4-chlorophenyl)-1H-pyrazol-3-yloxymethyl]phenyl}(N-methoxy)carbamate]", "values": [{"measurement": "Efficacy in % of the untreated control", "setting": "[8]; 0.3125 ppm in the spray liquor", "value": 22, "unit": "%"}, {"measurement": "Efficacy in % of the untreated control", "setting": "[8]; 0.625 ppm in the spray liquor", "value": 56, "unit": "%"}]}, {"compound": "manganese ethylenebis(dithiocarbamate) zinc complex [mancozeb (K-1)]", "values": [{"measurement": "Efficacy in % of the untreated control", "setting": "[4]; 6.3 ppm in the spray liquor", "value": 0, "unit": "%"}, {"measurement": "Efficacy in % of the untreated control", "setting": "[4]; 12.5 ppm in the spray liquor", "value": 0, "unit": "%"}, {"measurement": "Efficacy in % of the untreated control", "setting": "[4]; 50 ppm in the spray liquor", "value": 0, "unit": "%"}]}, {"compound": "N#Cc1sc2c(=O)c3ccccc3c(=O)c=2sc1C#N", "note": "[dithianon (L-3), 5,10-dioxo-5,10-dihydronaphtho[2,3-b][1,4]dithiine-2,3-dicarbonitrile]", "values": [{"measurement": "Efficacy in % of the untreated control", "setting": "[1]", "value": 0, "unit": "%"}]}, {"compound": "CC(C)NC(=O)N1CC(=O)N(c2cc(Cl)cc(Cl)c2)C1=O", "note": "[iprodione (F-1), N-isopropyl-3-(3,5-dichlorophenyl)-2,4-dioxoimidazolidine-1-carboxamide]", "values": [{"measurement": "Efficacy in % of the untreated control", "setting": "[4]; 12.5 ppm in the spray liquor", "value": 0, "unit": "%"}, {"measurement": "Efficacy in % of the untreated control", "setting": "[4]; 50 ppm in the spray liquor", "value": 0, "unit": "%"}, {"measurement": "Efficacy in % of the untreated control", "setting": "[8]; 12.5 ppm in the spray liquor", "value": 0, "unit": "%"}, {"measurement": "Efficacy in % of the untreated control", "setting": "[8]; 100 ppm in the spray liquor", "value": 0, "unit": "%"}]}, {"compound": "zinc ammoniate ethylenebis(dithiocarbamate) [metiram (K-2)]", "values": [{"measurement": "Efficacy in % of the untreated control", "setting": "[4]; 12.5 ppm in the spray liquor", "value": 0, "unit": "%"}, {"measurement": "Efficacy in % of the untreated control", "setting": "[4]; 50 ppm in the spray liquor", "value": 0, "unit": "%"}, {"measurement": "Efficacy in % of the untreated control", "setting": "[4]; 100 ppm in the spray liquor", "value": 0, "unit": "%"}]}, {"compound": "CC(Cc1ccc(C(C)(C)C)cc1)CN1CC(C)OC(C)C1", "note": "[fenpropimorph (D-1), 4-[3-(4-tert-butylphenyl)-2-methylpropyl]-2,6-dimethylmorpholine]", "values": [{"measurement": "Efficacy in % of the untreated control", "setting": "[9]; 15 ppm in the spray liquor", "value": 0, "unit": "%"}, {"measurement": "Efficacy in % of the untreated control", "setting": "[9]; 30 ppm in the spray liquor", "value": 67, "unit": "%"}]}, {"compound": "COCC(=O)N(c1c(C)cccc1C)C(C)C(=O)OC", "note": "(racemic) [metalaxyl (C-1), methyl N-(methoxyacetyl)-N-(2,6-xylyl)-DL-alaninate]", "values": [{"measurement": "Efficacy in % of the untreated control", "setting": "[2]; 6.25 ppm in the spray liquor", "value": 0, "unit": "%"}, {"measurement": "Efficacy in % of the untreated control", "setting": "[2]; 50 ppm in the spray liquor", "value": 0, "unit": "%"}]}]}
